Key:
[1] = target: Electric eel AChE (type-VI-S) (Electrophorus electricus, UniProt O42275); test: Anti-cholinesterase inhibition assay; type: biochemical
[2] = target: equine BChE (Equus caballus, UniProt P81908); test: Anti-cholinesterase inhibition assay; type: biochemical
equine BChE, sequence (P81908 whole entry): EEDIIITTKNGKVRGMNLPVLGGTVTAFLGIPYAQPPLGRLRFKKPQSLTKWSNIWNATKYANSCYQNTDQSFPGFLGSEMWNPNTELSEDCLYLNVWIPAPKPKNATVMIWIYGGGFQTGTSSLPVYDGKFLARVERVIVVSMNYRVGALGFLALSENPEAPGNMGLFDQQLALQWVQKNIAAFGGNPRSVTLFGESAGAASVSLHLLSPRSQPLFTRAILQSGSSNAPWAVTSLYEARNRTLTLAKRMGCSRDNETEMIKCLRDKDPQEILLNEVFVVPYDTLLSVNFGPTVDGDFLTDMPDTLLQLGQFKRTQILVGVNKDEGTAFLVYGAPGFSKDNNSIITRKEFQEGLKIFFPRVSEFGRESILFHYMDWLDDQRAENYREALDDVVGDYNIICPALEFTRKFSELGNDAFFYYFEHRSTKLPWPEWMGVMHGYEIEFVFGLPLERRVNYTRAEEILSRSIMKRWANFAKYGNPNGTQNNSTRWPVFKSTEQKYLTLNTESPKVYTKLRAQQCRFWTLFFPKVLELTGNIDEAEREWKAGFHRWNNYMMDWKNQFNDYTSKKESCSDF

Electric eel AChE (type-VI-S), sequence (O42275 24-633): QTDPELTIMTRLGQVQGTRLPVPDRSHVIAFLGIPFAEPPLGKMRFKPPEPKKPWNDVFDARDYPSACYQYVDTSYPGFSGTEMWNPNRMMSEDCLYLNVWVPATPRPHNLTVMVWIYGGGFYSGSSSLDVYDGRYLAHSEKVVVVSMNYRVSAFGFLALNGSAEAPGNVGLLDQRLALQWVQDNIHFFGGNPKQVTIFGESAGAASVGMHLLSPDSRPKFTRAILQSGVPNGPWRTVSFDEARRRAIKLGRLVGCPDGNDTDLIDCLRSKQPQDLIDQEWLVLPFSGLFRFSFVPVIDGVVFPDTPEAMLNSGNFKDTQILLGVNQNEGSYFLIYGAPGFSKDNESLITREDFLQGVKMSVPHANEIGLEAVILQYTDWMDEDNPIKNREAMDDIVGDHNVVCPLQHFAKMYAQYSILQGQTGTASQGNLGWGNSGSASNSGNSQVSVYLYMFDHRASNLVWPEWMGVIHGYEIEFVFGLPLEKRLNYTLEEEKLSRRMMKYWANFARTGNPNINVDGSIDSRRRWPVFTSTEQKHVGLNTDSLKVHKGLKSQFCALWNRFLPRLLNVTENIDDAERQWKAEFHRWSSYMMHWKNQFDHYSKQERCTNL

SMILES | IC50 [1] [µM] | IC50 [2] [µM]
CCOc1ccc(C=NNC(=S)NCC(=O)c2cccc(C)c2)cc1 [Compound 5, 2-(4-Ethoxybenzylidene)-N-(2-oxo-2-(m-tolyl)ethyl)hydrazine-1-carbothioamide] | 295.12 ± 0.12 | 
CCOc1ccc(C=NNC(=S)NCC(=O)c2ccc(Br)cc2)cc1 [Compound 6, N-(2-(4-Bromophenyl)-2-oxoethyl)-2-(4-ethoxybenzylidene)hydrazine-1-carbothioamide] | 160.04 ± 0.02 | 190.21 ± 0.13
CCOc1ccc(C=NNC(=S)NCC(=O)c2ccc(Cl)cc2)cc1 [Compound 7, N-(2-(4-Chlorophenyl)-2-oxoethyl)-2-(4-ethoxybenzylidene)hydrazine-1-carbothioamide] | 140.52 ± 0.11 | 
CCOc1ccc(C=NNC(=S)NCC(=O)c2ccccc2)cc1 [Compound 8, 2-(4-Ethoxybenzylidene)-N-(2-oxo-2-phenylethyl)hydrazine-1-carbothioamide] | 220.22 ± 0.14 | 260.21 ± 0.23
CCOc1ccc(C=NNC(=S)NCC(=O)c2ccccc2O)cc1 [Compound 9, 2-(4-Ethoxybenzylidene)-N-(2-(2-hydroxyphenyl)-2-oxoethyl)hydrazine-1-carbothioamide] |  | 147.2 ± 0.09
CCOc1ccc(C=NNC(=S)NCC(=O)c2ccc(Cl)cc2Cl)cc1 [Compound 10, N-(2-(2,4-Dichlorophenyl)-2-oxoethyl)-2-(4-ethoxybenzylidene)hydrazine-1-carbothioamide] | 275.71 ± 0.12 | 
Cc1ccc(C(=O)CNC(=S)NN=Cc2ccc([N+](=O)[O-])cc2)cc1 [Compound 12, 2-(4-Nitrobenzylidene)-N-(2-oxo-2-(p-tolyl)ethyl)hydrazine-1-carbothioamide] | 280.24 ± 0.21 | 260.38 ± 0.25
O=C(CNC(=S)NN=Cc1ccc([N+](=O)[O-])cc1)c1ccccc1Br [Compound 17, N-(2-(2-Bromophenyl)-2-oxoethyl)-2-(4-nitrobenzylidene)hydrazine-1-carbothioamide] | 114.6 ± 0.15 | 150.4 ± 0.18

From publication PMC9910069 (ACS Omega, 2023)
